Reference: US8722628B2, “Autophagy-inducing peptide” (priority 2012, dated 2014)

System: H1975 cells
Conditions: EGFR T790M

In the case of `C#Cc1cccc(Nc2ncnc3cc(OCCOC)c(OCCOC)cc23)c1` [Erlotinib], the autophagy induction is reported as “fails to induce autophagy” and the cell killing is reported as “fails to kill the cells”.
